Assay results reported in patent US20260191768A1, “PHARMACEUTICAL COMPOSITION CONTAINING HIGH CONCENTRATION OF OPIRANSERIN” (VIVOZON, INC., priority 2022, published 2026).
Counter-ions that a name gives are not always drawn.

How the values were obtained:
Format in all cases: physicochemical
[1] = Solubility measurement of opiranserin hydrochloride according to solvents (HPLC); details: for solubility at 7 days / solubility at 3 h: thermodynamic from solid; for solubility at 7 days: 25° C./7 days
Procedure: An excess amount of opiranserin hydrochloride was added to the solvents shown in Table 1, stirred under the following conditions, centrifuged and filtered, and the filtrate was diluted. The solubility of the drug was measured using high-performance liquid chromatography (HPLC).

[2] = Room temperature stability of dissolved opiranserin hydrochloride; details: for Opiranserin hydrochloride concentration, Initial: prepared at 40° C. for 3 hours
Procedure: Among solvents showing high solubility in Experimental Example 1, the solvents that have no irritation or can minimize irritation when preparing medicines were selected as shown in Table 2. Then, the solubility and short-term room temperature stability of opiranserin hydrochloride according to the concentration content were estimated. Each preparation was prepared by adjusting the solvent according to the concentration, adding an excess amount of opiranserin hydrochloride, and stirring at 40° C. for 3 hours. The preparation was centrifuged, the supernatant was transferred to a glass vial, and stored at room temperature to observe properties and analyze content. Liquid chromatography (HPLC) was used to analyze the content of opiranserin hydrochloride, and sampling was carried out upon completion of preparation and after storage at room temperature for 65 hours.

[3] = Screening of hydrotropes for improving solubility of opiranserin hydrochloride
Procedure: After adding 50 mL of water for injection into a 200 mL beaker, a weight of hydrotrope corresponding to the target content was added thereto and stirred at room temperature to completely dissolve it. Then, a weight of opiranserin hydrochloride corresponding to the target concentration was added and stirred at room temperature to completely dissolve it. If it was not completely dissolved in some solvents, the temperature was raised to 40° C. and additional stirring was carried out. When the added materials were completely dissolved, water for injection was added to the beaker to reach the 100 mL mark and further stirred to ensure that the composition was completely mixed. The prepared compositions were filtered using a 0.2 μm syringe filter and then dispensed into vials for injection.

[4] = Solubility of opiranserin hydrochloride as stated in the description; details: solvent not stated; regarded as "sparingly soluble"
[5] = Solvent 27: 1 w/v % Poloxamer 124
[6] = Solvent 28: 5 w/v % Poloxamer 124
[7] = Solvent 29: 1 w/v % Propylene glycol
[8] = Solvent 30: 5 w/v % Propylene glycol

CCCCOc1c(OC)cc(C(=O)NCC2(N(C)C)CCOCC2)cc1OC [Opiranserin hydrochloride, 4-butoxy-N-((4-(dimethylamino)tetrahydro-2H-pyran-4-yl)methyl)-3,5-dimethoxy benzamide]
solubility at 7 days ([1]; 1 w/v % Caprylocaproyl polyoxyl 8 glyceride, 25 °C, aqueous with cosolvent or surfactant or cyclodextrin, Solvent 7: 1 w/v % Caprylocaproyl polyoxyl 8 glyceride): 46.2 mg/mL
solubility at 7 days ([1]; 1 w/v % Hydroxpropyl-beta-cyclodextrin, 25 °C, aqueous with cosolvent or surfactant or cyclodextrin, Solvent 10: 1 w/v % Hydroxpropyl-beta-cyclodextrin): 49.2 mg/mL
solubility at 7 days ([1]; 1 w/v % Macrogol 15 hydroxystearate, 25 °C, aqueous with cosolvent or surfactant or cyclodextrin, Solvent 8: 1 w/v % Macrogol 15 hydroxystearate): 44 mg/mL
solubility at 7 days ([1]; 1 w/v % PEG-6 caprylic/capric glyceride, 25 °C, aqueous with cosolvent or surfactant or cyclodextrin, Solvent 16: 1 w/v % PEG-6 caprylic/capric glyceride): 49 mg/mL
solubility at 3 h ([1]; 1 w/v % Poloxamer 124, 40 °C, aqueous with cosolvent or surfactant or cyclodextrin, Solvent 21: 1 w/v % Poloxamer 124, 40° C./3 hours): 72.1 mg/mL
solubility at 7 days ([1]; 1 w/v % Polyoxyl 35 castor oil, 25 °C, aqueous with cosolvent or surfactant or cyclodextrin, Solvent 6: 1 w/v % Polyoxyl 35 castor oil): 42.1 mg/mL
solubility at 7 days ([1]; 1 w/v % Polysorbate 80, 25 °C, aqueous with cosolvent or surfactant or cyclodextrin, Solvent 9: 1 w/v % Polysorbate 80): 44.7 mg/mL
solubility at 3 h ([1]; 1 w/v % Propylene glycol, 40 °C, water, Solvent 23: 1 w/v % Propylene glycol, 40° C./3 hours): 61.8 mg/mL
solubility at 7 days ([1]; 1 w/v % Triacetin, 25 °C, water, Solvent 13: 1 w/v % Triacetin): 49.7 mg/mL
solubility at 3 h ([1]; 1 w/v % Triacetin, 40 °C, water, Solvent 19: 1 w/v % Triacetin, 40° C./3 hours): 78.6 mg/mL
solubility at 7 days ([1]; 3 w/v % Hydroxpropyl-beta-cyclodextrin, 25 °C, aqueous with cosolvent or surfactant or cyclodextrin, Solvent 11: 3 w/v % Hydroxpropyl-beta-cyclodextrin): 55.6 mg/mL
solubility at 7 days ([1]; 3 w/v % PEG-6 caprylic/capric glyceride, 25 °C, aqueous with cosolvent or surfactant or cyclodextrin, Solvent 17: 3 w/v % PEG-6 caprylic/capric glyceride): 57 mg/mL
solubility at 7 days ([1]; 3 w/v % Triacetin, 25 °C, water, Solvent 14: 3 w/v % Triacetin): 57.1 mg/mL
solubility at 3 h ([1]; 5 w/v % Poloxamer 124, 40 °C, aqueous with cosolvent or surfactant or cyclodextrin, Solvent 22: 5 w/v % Poloxamer 124, 40° C./3 hours): 83.8 mg/mL
solubility at 3 h ([1]; 5 w/v % Propylene glycol, 40 °C, aqueous with cosolvent or surfactant or cyclodextrin, Solvent 24: 5 w/v % Propylene glycol, 40° C./3 hours): 74 mg/mL
solubility at 7 days ([1]; 6 w/v % Hydroxpropyl-beta-cyclodextrin, 25 °C, aqueous with cosolvent or surfactant or cyclodextrin, Solvent 12: 6 w/v % Hydroxpropyl-beta-cyclodextrin): 63.3 mg/mL
solubility at 7 days ([1]; 6 w/v % PEG-6 caprylic/capric glyceride, 25 °C, aqueous with cosolvent or surfactant or cyclodextrin, Solvent 18: 6 w/v % PEG-6 caprylic/capric glyceride): 67.6 mg/mL
solubility at 7 days ([1]; 6 w/v % Triacetin, 25 °C, aqueous with cosolvent or surfactant or cyclodextrin, Solvent 15: 6 w/v % Triacetin): 72.7 mg/mL
solubility at 3 h ([1]; 6 w/v % Triacetin, 40 °C, aqueous with cosolvent or surfactant or cyclodextrin, Solvent 20: 6 w/v % Triacetin, 40° C./3 hours): ~86 mg/mL
solubility at 7 days ([1]; 100% Ethanol, 25 °C, organic solvent or mixture, Solvent 2: 100% Ethanol): 25.1 mg/mL
solubility at 7 days ([1]; 100% Methanol, 25 °C, organic solvent or mixture, Solvent 3: 100% Methanol): 36 mg/mL
solubility at 7 days ([1]; 100% Polyethylene, 25 °C, organic solvent or mixture, Solvent 5: 100% Polyethylene): 2.59 mg/mL
solubility at 7 days ([1]; 100% Propylene glycol, 25 °C, organic solvent or mixture, Solvent 4: 100% Propylene glycol): 13 mg/mL
solubility at 7 days ([1]; Purified water, 25 °C, water, Solvent 1: Purified water): 45.2 mg/mL
Opiranserin hydrochloride Solubility ([1]; Solvent 20: 6 w/v % Triacetin, 40° C./3 hours): 86.1 mg/mL
Change in properties after storage at room temperature for 65 hours ([2]; Solvent 25: 1 w/v % Triacetin): Recrystallization generation
Opiranserin hydrochloride concentration, After storage at room temperature for 65 hours ([2]; Solvent 25: 1 w/v % Triacetin): 44.33 mg/mL
Opiranserin hydrochloride concentration, Initial ([2]; Solvent 25: 1 w/v % Triacetin): 78.6 mg/mL
Change in properties after storage at room temperature for 65 hours ([2]; Solvent 26: 6 w/v % Triacetin): Recrystallization generation
Opiranserin hydrochloride concentration, After storage at room temperature for 65 hours ([2]; Solvent 26: 6 w/v % Triacetin): 38.1 mg/mL
Change in properties after storage at room temperature for 65 hours ([2]; Solvent 26: 6 w/v % Triacetin, listed as opiranserin hydrochloride): recrystallization of needle-shaped structure was generated
Opiranserin hydrochloride concentration, Initial ([2]; Solvent 26: 6 w/v % Triacetin): 86.1 mg/mL
Change in properties after storage at room temperature for 65 hours [2, 5]: Recrystallization generation
Opiranserin hydrochloride concentration, After storage at room temperature for 65 hours [2, 5]: 41.1 mg/mL
Opiranserin hydrochloride concentration, Initial [2, 5]: 72.1 mg/mL
Change in properties after storage at room temperature for 65 hours [2, 6]: Recrystallization generation
Opiranserin hydrochloride concentration, After storage at room temperature for 65 hours [2, 6]: 42.5 mg/mL
Opiranserin hydrochloride concentration, Initial [2, 6]: 83.8 mg/mL
Change in properties after storage at room temperature for 65 hours [2, 7]: Recrystallization generation
Opiranserin hydrochloride concentration, After storage at room temperature for 65 hours [2, 7]: 34.8 mg/mL
Opiranserin hydrochloride concentration, Initial [2, 7]: 61.8 mg/mL
Change in properties after storage at room temperature for 65 hours [2, 8]: Recrystallization generation
Opiranserin hydrochloride concentration, After storage at room temperature for 65 hours [2, 8]: 34.8 mg/mL
Opiranserin hydrochloride concentration, Initial [2, 8]: 74.0 mg/mL
Concentration of opiranserin hydrochloride that could be dissolved ([3]; sodium benzoate used as a hydrotrope): up to 300 mg/mL
Concentration of opiranserin hydrochloride that could be stably dissolved ([3]; sodium salicylate used as a hydrotrope): up to 100 mg/mL
Concentration of opiranserin hydrochloride that could be stably dissolved ([3]; trisodium citrate dihydrate used as a hydrotrope): up to 100 mg/mL
solubility [4]: 25 mg/mL
